According to patent publication US6313305A, “Cephalosporins” (Hoechst Marion Roussel, priority 1991, dated 2001):
Converted amounts (≈) assume the structure as drawn. Structures can show the parent of a compound that is named as a salt.

Key:
Format in all cases: cell-based
[1] = system: Pseudomonas Aeruginosa (39 strains); assay: In vitro activity, method of dilutions in solid medium (TABLE II): Pseudomonas aeruginosa; conditions: 24 hours at 37° C.
Experimental: (§1) In Vitro Activity, Method of Dilutions in Solid Medium
(§2) A series of dishes was prepared in which an equal amount of sterile nutritional medium was distributed containing increasing amounts of the test product. Then, each dish was seeded with several bacteria strains and after incubation in an oven for 24 hours at 37° C., the growth inhibition was evaluated by the absence of any bacterial development, which allowed the minimal inhibiting concentrations (M.I.C.) to be determined expressed in micrograms/ml. The results were expressed in M.I.C. 90 which is the minimum concentration of antibiotic allowing the growth of the strains studied to be inhibited by […] (TABLE II).

[2] = system: oracillin-sensitive penicillin-resistants Staphylococci aureus (20 strains); assay: In vitro activity, method of dilutions in solid medium (TABLE II): oracillin-sensitive penicillin-resistant Staphylococcus aureus; conditions: 24 hours at 37° C.
Experimental: as §1, §2

[3] = system: Enterobacteria producting β lactamase with enlarged spectrum (16 strains); assay: In vitro activity, method of dilutions in solid medium (TABLE II): Enterobacteria producing β lactamase with enlarged spectrum; conditions: 24 h
Experimental: as §1, §2

[4] = system: Enterobacteria producing cephalosporinases (20 strains); assay: In vitro activity, method of dilutions in solid medium (TABLE II): Enterobacteria producing cephalosporinases; conditions: 24 h
Experimental: as §1, §2

SMILES | MIC90 [1] [µg/mL] | MIC90 [2] [µg/mL] | MIC90 [3] [µg/mL] | MIC90 [4] [µg/mL]
Nc1nc(/C(=N/OC(C(=O)O)c2cc(Cl)c(O)c(O)c2Cl)C(=O)N[C@@H]2C(=O)N3C(C(=O)[O-])=C(/C=C/C[n+]4cccc5c4CCC5)CS[C@H]23)cs1 (stereo partly drawn) [Example 27, Internal salt of (6R-(3-(E) 6α, 7β-(Z)))-1-(3-(7-(((2-amino-4-thiazolyl)-(carboxy-(2,5-dichloro-3,4-dihydroxy-phenyl)-methoxy)-imino)-acetamido)-2-carboxy-8-oxo-5-thia-1-azabicyclo[4,2,0]oct-2-en-3-yl)-2-propenyl)-6,7-dihydro-5H-pyrindinium] | 0.08 | 5 | 10 | 0.3
Nc1nc(/C(=N/OC(C(=O)O)c2cc(F)c(O)c(O)c2F)C(=O)N[C@@H]2C(=O)N3C(C(=O)[O-])=C(/C=C/C[n+]4ccn5ccccc54)CS[C@H]23)cs1 (stereo partly drawn) [Example 39, Internal Salt of (6R-(3-(E) 6α, 7β(Z)))-1-(3-(7-(((2-Amino-4-thiazolyl)(carboxy-(2,5-difluoro-3,4-dihydroxyphenyl)-methoxy)-imino)-acetamido)-2-carboxy-8-oxo-5-thia-1-azabicyclo[4,2,0]oct-2-en-3-yl)-2-propenyl)-imidazo(1,2-a)pyridinium] | 0.08 | 2.5 | 2.5 | 0.3
COc1cc(C(O/N=C(\C(=O)N[C@@H]2C(=O)N3C(C(=O)[O-])=C(/C=C/C[n+]4cccc5ccccc54)CS[C@H]23)c2csc(N)n2)C(=O)O)c(Cl)c(O)c1O (stereo partly drawn) [Example 43] | 1.2 (≈ 1.56 µM) | 0.3 (≈ 0.391 µM) | 1.2 (≈ 1.56 µM) | 2.5 (≈ 3.26 µM)
